# Activity calls are given as the source filed them. No cut-off for these calls is given here.
# Key:
# Rattus norvegicus [1] = species on record: Rattus norvegicus; experiment: Compound was tested for induction of contralateral turning behavior with unilateral lesions of the nigrostriatal pathway in rat by haloperidol; Significant at p< 0.05; type: functional, organism-based
# Rattus norvegicus [2] = species on record: Rattus norvegicus; experiment: Compound was tested for induction of contralateral turning behavior with unilateral lesions of the nigrostriatal pathway in rat, activity expressed as potency ratio to apomorphine.; type: functional
# Dopamine receptor = conditions: Felis catus
# Felis catus [3] = species on record: Felis catus; experiment: Compound was tested for inhibition of chronotropic stimulation response on the cardioaccelerator nerve in cat; type: functional; conditions: read-out: ID50 (the source's name)
# Rattus norvegicus [4] = experiment: Compound was tested for induction of contralateral turning behavior with unilateral lesions of the nigrostriatal pathway in rat, activity expressed as potency ratio to apomorphine; Inactive up to 12.19 umol/kg; type: functional, organism-based
# Felis catus [5] = experiment: Compound was tested for inhibition of chronotropic stimulation response on the cardioaccelerator nerve in cat at the concentration > 3.0 uM/kg; Inactive; type: functional, organism-based
# Felis catus [6] = species on record: Felis catus; experiment: Compound was tested for antagonism of apomorphine induced inhibition of the tachycardia produced by stimulation of the right cardioaccelerator nerve in cat; type: functional
# Rattus norvegicus [7] = experiment: Compound was tested for induction of contralateral turning behavior with unilateral lesions of the nigrostriatal pathway in rat, activity expressed as potency ratio to apomorphine; Inactive up to 13.3 umol/kg; type: functional, organism-based
# Rattus norvegicus [8] = species on record: Rattus norvegicus; experiment: Compound was tested for induction of contralateral turning behavior with unilateral lesions of the nigrostriatal pathway in rat by haloperidol; NS= Not significant; type: functional, organism-based
# Rattus norvegicus [9] = experiment: Compound was tested for induction of contralateral turning behavior with unilateral lesions of the nigrostriatal pathway in rat, activity expressed as potency ratio to apomorphine; Inactive in inducing turns up to 12.1 umol/kg; type: functional, organism-based
# Rattus norvegicus [10] = experiment: Compound was tested for induction of contralateral turning behavior with unilateral lesions of the nigrostriatal pathway in rat, activity expressed as potency ratio to apomorphine; Inactive up to 11.7 umol/kg; type: functional, organism-based
# Rattus norvegicus [11] = experiment: Compound was tested for induction of contralateral turning behavior with unilateral lesions of the nigrostriatal pathway in rat, activity expressed as potency ratio to apomorphine; Inactive up to 16.9 umol/kg; type: functional, organism-based
# Rattus norvegicus [12] = experiment: Compound was tested for induction of contralateral turning behavior with unilateral lesions of the nigrostriatal pathway in rat, activity expressed as potency ratio to apomorphine; Inactive up to 12.3 umol/kg; type: functional, organism-based
# Rattus norvegicus [13] = experiment: Compound was tested for induction of contralateral turning behavior with unilateral lesions of the nigrostriatal pathway in rat, activity expressed as potency ratio to apomorphine; Inactive up to 13.9 umol/kg; type: functional, organism-based
Structure (SMILES),Potency ratio (Rattus norvegicus [2]),AD50 (Dopamine receptor),ED50 (Felis catus [3]) [µmol/kg],ID50 (Felis catus [5]),further results
CCCN(CCC)C1Cc2ccc(CO)c(O)c2C1 (centres undefined),0.33,inactive,0.12,,Antagonism (Rattus norvegicus [1]): Active
CCCN(CCC)CCc1ccc(CO)c(O)c1,,inactive,,inactive,Potency ratio (Rattus norvegicus [4]): inactive
CCCN(CCC)C1CCc2c(ccc(C)c2O)C1 (centres undefined),0.39,inactive,0.06,,
CCCN(CCC)C1Cc2ccc(C(=O)O)c(O)c2C1 (centres undefined),,inactive,3.18,,
CCCN(CCC)C1Cc2ccc(C)c(O)c2C1 (centres undefined),0.3,inactive,0.89,,Antagonism (Rattus norvegicus [1]): Active
CCCN1CCC[C@H]2c3ccc(C)c(O)c3CC[C@@H]21,0.68,,,inactive,AD50 (Felis catus [6]): 0.44 µM/kg
CCCN(CCC)CCc1ccc(C=O)c(O)c1,,inactive,,inactive,Antagonism (Rattus norvegicus [1]): Active; Potency ratio (Rattus norvegicus [7]): inactive
CCCN1CCC[C@H]2c3ccc(C=O)c(O)c3CC[C@@H]21,0.38,inactive,1.81,,Antagonism (Rattus norvegicus [8]): inactive
CCCN(CCC)C1CCc2c(ccc(CO)c2O)C1 (centres undefined),0.93,inactive,0.03,,
CCCN(CCC)C1CCc2c(ccc(C(=O)O)c2O)C1 (centres undefined),,inactive,,inactive,Potency ratio (Rattus norvegicus [9]): inactive
CCCN(CCC)C1Cc2ccc(C=O)c(O)c2C1 (centres undefined),,inactive,,inactive,Potency ratio (Rattus norvegicus [10]): inactive
CCCN1CCC[C@H]2c3ccc(CO)c(O)c3CC[C@@H]21,0.07,inactive,,inactive,Antagonism (Rattus norvegicus [1]): Active
CCCN(CCC)CCc1ccc(C)c(O)c1,,inactive,,inactive,Potency ratio (Rattus norvegicus [11]): inactive
CCCN(CCC)C1CCc2c(ccc(C=O)c2O)C1 (centres undefined),0.07,inactive,0.13,,
CCCN1CCC[C@H]2c3ccc(C(=O)O)c(O)c3CC[C@@H]21,,inactive,,inactive,Potency ratio (Rattus norvegicus [12]): inactive
CN1CCc2cccc3c2[C@H]1Cc1ccc(O)c(O)c1-3 [APOMORPHINE],,,0.022,,Antagonism (Rattus norvegicus [1]): Active
CCCN(CCC)CCc1ccc(C(=O)O)c(O)c1,,inactive,,inactive,Potency ratio (Rattus norvegicus [13]): inactive
